Source: US7432051B2, “Erythropoietin and erythropoietin receptor expression in human cancer” (The Henry M. Jackson Foundation for the Advancement of …, priority 2000, dated 2008)

Experiments:
U251 cells [1] = assay: Serum withdrawal cell survival; type: cell-based, human; details: inhibitor added at change to serum-free media, forty-eight hours
Description: (§1) U251 cells were grown in 96-well culture dishes to approximately 85% confluence. Serum was withdrawn overnight and 10 μM Cisplatin was added for twenty-four hours. […] Control groups underwent similar serum withdrawal but no Cisplatin exposure. Where indicated rhEpo or Epoetin-alfa was added thirty minutes prior to the addition of cisplatin. Serum withdrawal studies involved assessment of cell survival forty-eight hours following change to serum-free media. […] Where indicated, Epoetin-alfa, tyrosine kinase inhibitors or PI3K inhibitors were added at the time of change to serum-free media. The Student's T-test was used to determine statistically significant differences between treatment groups.

U251 cells [2] = assay: Chemotherapeutic drug toxicity, cell survival by MTT assay; type: cell-based, human; details: serum-free media
Description: as §1

[3] = system: cell lines derived from a wide range of tumors including two breast cancer cell lines; details: in particular low doses of erythropoietin; cited from earlier work
MCF-7 cells [4] = assay: Western blot of phosphotyrosine containing proteins; type: cell-based, human; details: five minute incubation; 250 units/ml rhEpo or 10 μM Epo mimetic peptide
MCF-7 cells [5] = assay: 3H-thymidine incorporation assay of DNA synthesis; type: cell-based, human
Description: (§2) To determine whether Epo exerts trophic effects on breast cancer cell lines, the effect of exogenously added Epo on DNA synthesis was examined in MCF-7 and BT-549 cells. DNA synthesis was measured using a ^3H-thymidine incorporation assay. Breast cancer cells plated in six well plates in one ml DMEM supplemented with 20% fetal bovine serum per well were allowed to incubate for sixteen hours. Cells were switched to one ml phenol-free DMEM at the time of treatments. recombinant human Epo (rhEpo) (10 units), or either anti-Epo or anti-EpoR antibodies ([…]) was then added directly to the medium and the cells cultured for another sixteen hours. Thymidine labeling was performed by adding one […] (NEN Life Sciences) for one hour and DNA associated counts were then determined by liquid scintillation as described (Assandri et al. (1999) J. Physiol. 516, 343-352).

BT-549 cells = assay: 3H-thymidine incorporation assay of DNA synthesis; type: cell-based, human
Description: as §2

U251 cells [6] = assay: Western blot of EpoR associated signaling (tyrosine phosphorylation, Jak-2, STAT-5, Akt); type: cell-based, human
Description: (§3) After the treatments to the cell culture dishes described in Example 10, the cells were washed once with 10 ml cold Dulbecco's phosphate-buffered saline (PBS), scraped into 1.5 ml of PBS on ice, and pelleted by centrifugation at 2,000 rpm for three minutes at 4° C. Cell pellets were washed once with 5 packed cell volumes of buffer A (10 mM Tris-HCl (pH 7.5), 1.5 mM magnesium chloride, 10 mM KCl), freshly supplemented with Complete, EDTA-free Protease Inhibitor Cocktail (Roche) and 2 mM dithiothreitol (DTT)), and resuspended in four packed cell volumes of buffer A. After incubation on ice for 10 min, cell suspension was homogenized with thirty strokes in a glass douncer (Wheaton) with type-b pestle. Nuclei were pelleted at 1,000 rpm for ten minutes and resuspended in four packed nuclear volumes of buffer C (20 mM Tris-HCl (pH 7.5), 0.42 M KCl, 1.5 mM magnesium chloride, 20% glycerol, freshly supplemented with Complete, EDTA-free Protease Inhibitor Cocktail (Roche) and 2 mM DTT), and rotated for thirty minutes at 4° C. After centrifugation at 1,400 rpm for thirty minutes, the nuclear extracts were aliquoted and stored at −80° C. Protein concentration was determined by the method of Bradford with a commercial kit (Bio-Rad) using bovine serum albumin as standard. HIF-1α protein was detected by immunoblot analysis. Twenty five to thirty μg of nuclear extracts were boiled for five minutes in 2× denaturing buffer, and loaded onto SDS-7% polyacrylamide gels. After transfer, membranes were blocked with 5% milk in TBST (10 mM Tris-HCl, 150 mM NaCl, 0.1% Tween, pH 7.8) for one and a half hours at room temperature and subsequently incubated with mouse monoclonal HIF-1α antibody (Transduction Labs) for two hours. The membranes were washed with TBST three times and incubated with horseradish peroxidase-conjugated secondary antibody. Then, the membranes were washed three times with TBST and analyzed by enhanced chemiluminescence (Pierce). Analysis of EpoR and phosphotyrosine immunoreactivity was performed as reported previously (Acs et al. (2001) Cancer Res. 61, 3561-3565).
Using the Western blotting techniques described in Example 11 above, the immunoreactive EpoR expressed in human gliomas was further tested to see if it was functional. Cultured U251 cells were stimulated with recombinant human erythropoietin. […] Tyrosine phosphorylation could also be elicited by an Epo-mimetic peptide (EMP) and by Epoetin-alfa, the clinically used form of Epo (FIG. 11B). Using phospho-specific antibodies, we also detected rhEpo stimulated Jak-2 and STAT-5 tyrosine phosphorylation as well as phosphorylation of Akt (FIG. 12C).

U251 cells [7] = assay: Hypoxia-sensing response (HIF-1α immunoblot, HIF-1 gelshift, RT-PCR and Western blot for Epo/EpoR); type: cell-based, human; details: 150 μM DFX, six-hour treatment
Description: Human glioma cell lines (ATCC) and normal human astrocytes (Clonetics) were cultured in Eagle's MEM medium supplemented with 10% fetal bovine serum, and 1% (v/v) penicillin/streptomycin. The cells were grown to 90% confluence in 10 cm culture dishes. For hypoxia treatment, the culture dishes were sealed in modulator incubator chamber, flushed with gas containing 1% oxygen, 5% carbon dioxide, 94% nitrogen for five minutes, and incubated at 37° C. for four to six hours. For desferrioxamine (DFX) treatment, the cells were cultured with same medium containing […] DFX and incubated in cell culture incubator. Paraffin sections (5 μm) of the human GBMs were prepared and stained by immunohistochemistry methods as described previously (Acs et al. (2001) Cancer Res. 61, 3561-3565).
as §3
Oligonucleotide probe was generated by 5′ end labeling of the sense strand with gamma-[^32P]ATP (Dupont-NEN) and T4 polynucleotide kinase (Gibco-BRL), annealing to a ten-fold excess of antisense strand, and purification by using NucTrap Probe Purification Column (Stratagene). Binding reactions were carried out in a total volume of 20 μl containing 7.0 μg of nuclear extract and 0.2 μg of calf thymus DNA in buffer Z (20 mM Tris-HCl (pH 7.5), 0.1 M KCl, 0.2 mM EDTA, 20% glycerol, freshly supplemented with 2 mM DTT, 0.4 mM PMSF and 1 mM Na3PO4). […]

[8] = 10 units/ml exogenous rhEpo, p<0.01
[9] = rhEpo (10 units) in one ml medium, sixteen hours, p<0.01

For `O=c1c(-c2ccc(O)cc2)coc2cc(O)cc(O)c12` [Genistein, reference compound], the “effect on the protective effect of Epoetin-alfa” value (U251 cells [1]) was “blocked”.

In the case of `N.N.[Cl][Pt][Cl]` [Cisplatin, reference compound], the “cells killed (cell death)” value (U251 cells [2]; 10 μM Cisplatin, overnight / twenty-four hours) was “approximately 80%” and the survival fraction (U251 cells [2]; Cisplatin overnight) was 0.2.

In the case of “rhEpo: recombinant human Epo (rhEpo), R & D systems”, the “stimulation of cancer cell proliferation” value [3] is given as “no significant stimulation”, the “levels of phosphotyrosine containing proteins versus basal” value (MCF-7 cells [4]) is given as “markedly enhanced” and the “enhancement of 3H-thymidine incorporation” value (MCF-7 cells [5]; [8]) is given as “about 25%”. The “3H-thymidine incorporation, effect in words” value (MCF-7 cells [5]; rhEpo 100 units/ml (FIG. 2)) was “enhanced”, the “potentiation of DNA synthesis” value (MCF-7 cells [5]; [9]) was “approximately 20%” and the “enhancement of 3H-thymidine incorporation” value (BT-549 cells; [8]) was “about 25%”. For the same compound, the “3H-thymidine incorporation, effect in words” value (BT-549 cells; rhEpo 100 units/ml (FIG. 2)) was “enhanced”, the “potentiation of DNA synthesis” value (BT-549 cells; [9]) was “approximately 20%” and the Jak-2 tyrosine phosphorylation (U251 cells [6]; phospho-specific antibodies) was “stimulated”. The STAT-5 tyrosine phosphorylation (U251 cells [6]; phospho-specific antibodies) was “stimulated”, the “phosphorylation of the PI3K substrate Akt” value (U251 cells [6]; phospho-specific antibodies) was “stimulated” and the “tyrosine phosphorylation in several proteins” value (U251 cells [6]; serum free media, rhEpo 10 U/ml single dose, EMP and Epoetin-alfa thirty minute treatments) was “prominent, rapid, and long lasting activation”. The “duration of tyrosine phosphorylation” value (U251 cells [6]; single dose 10 U/ml rhEpo) was “more than two hours” and the “onset of tyrosine phosphorylation” value (U251 cells [6]; single dose 10 U/ml rhEpo) was “within one minute”.

For `CC(=O)N(O)CCCCCNC(=O)CCC(=O)N(O)CCCCCNC(=O)CCC(=O)N(O)CCCCCN` [DFX, desferrioximine], the “Epo mRNA expression (RT-PCR)” value (U251 cells [7]) was “prominent induction”, the “EpoR mRNA expression (RT-PCR)” value (U251 cells [7]) was “not induced” and the HIF-1 gelshift activity (U251 cells [7]) was “dramatically upregulating”. For the same compound, the “immunoreactive EpoR protein levels” value (U251 cells [7]) was “enhanced” and the “level of HIF-1α protein” value (U251 cells [7]) was “dramatically upregulating”.
